The source of these data is patent publication US8008000B2, “Viral variants detection and application” (priority 2003, dated 2011).

The structures appear in SMILES notation. “Also recorded” adds a separate entry of the source. Counter-ions that a name gives are not always drawn.

For experiment [1], the system named is HBV. In words: Response of Patient E (chronic HBV infection) to treatment. To be noted: previously treated with lamivudine. The experiment is classed as in vivo, Hepatitis B virus. An excerpt:
Reference herein to “decreased” or “reduced” in relation to sensitivity to ADV and/or LMV and/or FTC and/or TFV includes and encompasses a complete or substantial resistance to the nucleoside or nucleotide analog or other anti-HBV agents as well as partial resistance and includes a replication rate or replication efficiency which is more than a wild-type in the presence of a nucleoside or nucleotide analog or other anti-HBV agents. In one aspects this is conveniently measured by an increase in viral load during treatment, or alternatively, there is no substantial decrease in HBV DNA viral load from pretreatment HBV DNA levels during treatment (i.e., non-response to treatment).

The test system of experiment [2] is HBV. The experiment can be described thus: HBV viral load in Patient A during ADV therapy. The experiment is classed as in vivo, Hepatitis B virus. The note with it: Patient A on ADV treatment. An excerpt:
Patient A: During ADV treatment, unique HBV mutations were detected by sequencing (Table 4). This includes the unique mutation at rtT38K, and rtA181V. A number of other changes were also detected in the polymerase rtR55H and in the overlapping envelope gene (Table 4, FIGS. 4, 5 and 6). The changes in the HBsAg include sQ30K, sE44G, sA47T, sI126T, sA159V and sL173F. These unique changes were compared to reference sequences from each of the seven genotypes A-G as well as a consensus sequence from pretreatment samples to determine unique changes
Hepatitis B surface antigen (HBsAg), hepatitis B e antigen (HBeAg), anti-HBe and hepatitis B core antigen (HBcAg) specific IgG and IgM were measured using commercially available immunoassays (Abbott Laboratories, North Chicago, Ill., USA). Hepatitis B viral DNA levels were measured using a capture hybridization assay according to the manufacturer's directions (Digene Hybrid Capture II, Digene Diagnostics Inc., Beltsville, Md.). The manufacturers stated cut-off for detecting HBV viremia in clinical specimens was 0.7×10^6 copies/ml or 2.5 pg/ml, [Hendricks et al., Am J Clin Pathol 104: 537-46, 1995]. HBV DNA levels can also be quantitated using other commercial kits such as Cobas amplification HBV monitor kit (Roche).

Experiment [3] deals with HBV. The note with it: 30 mg daily dose, over 12 weeks, phase II studies; cited from earlier work.

Turning to `CC(C)OC(=O)OCOP(=O)(CO[C@H](C)Cn1cnc2c(N)ncnc21)OCOC(=O)OC(C)C` [TFV, tenofovir disoproxil fumarate], the response to treatment result in experiment [1] is “responded”.

With `CC(C)(C)C(=O)OCOP(=O)(COCCn1cnc2c(N)ncnc21)OCOC(=O)C(C)(C)C` [ADV, adefovir dipivoxil], the HBV viral load was 7.92E+07 in experiment [2] (8 Jul. 2003), 1.21E+09 in experiment [2] (14 Jan. 2003) and 8.77E+06 in experiment [2] (22 Oct. 2002). The response to treatment result in experiment [1] is “did not respond; also recorded: nonresponder”. In experiment [3], the “mean decrease in viremia” value is listed as 4 log10.
